Results as given in patent publication US9567339B2, “Primary carboxamides as BTK inhibitors” (AbbVie Inc., priority 2013, dated 2017).
Read-outs that look alike come from different tables or passages of the source.

Target: BTK, recombinant human catalytic domain (aa 393-659) (Homo sapiens (Human), UniProt Q06187)
Assay: In vitro BTK kinase activity measured by time-resolved fluorescence resonance energy transfer (trFRET)
Assay type: biochemical
Details: read-out: Btk IC50
[1] = trFRET, 0.001 mM ATP, biotin-TYR1 peptide substrate

BTK, recombinant human catalytic domain (aa 393-659), sequence (Q06187 393-659): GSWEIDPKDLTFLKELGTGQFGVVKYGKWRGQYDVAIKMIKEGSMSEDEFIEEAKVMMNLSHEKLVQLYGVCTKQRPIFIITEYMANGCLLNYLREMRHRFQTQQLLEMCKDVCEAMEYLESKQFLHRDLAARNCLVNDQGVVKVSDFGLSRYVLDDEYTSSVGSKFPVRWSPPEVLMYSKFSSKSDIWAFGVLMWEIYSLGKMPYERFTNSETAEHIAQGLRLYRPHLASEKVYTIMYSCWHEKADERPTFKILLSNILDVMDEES

| SMILES | IC50 [1] | IC50 |
| --- | --- | --- |
| C=CC(=O)Nc1cccc(-c2ccc(C(N)=O)c3[nH]c(-c4ccncc4)cc23)c1C [A.1.12] | < 100 nM | – |
| C=CC(=O)N[C@@H]1CC[C@H](c2ccc(C(N)=O)c3[nH]ccc23)C1 (relative stereo) [Example 10, 4-(cis-3-Acrylamidocyclopentyl)-1H-indole-7-carboxamide] | < 100 nM | – |
| Cc1ccc(-c2cc3c(-c4c(C)noc4C)ccc(C(N)=O)c3[nH]2)cc1 [A.8.2] | 100 to 1000 nM | – |
| C=CC(=O)Nc1ccc(F)c(-c2ccc(C(N)=O)c3[nH]ccc23)c1F [E.1.20] | – | < 100 nM |
| C=CC(=O)N1CCC[C@H](c2ccc(C(N)=O)c3[nH]ccc23)C1 [30 (R), (R)-4-(1-Acryloylpiperidin-3-yl)-1H-indole-7-carboxamide] | 100 to 1000 nM | – |
| CCC(=O)Nc1cccc(-c2ccc(C(N)=O)c3[nH]c(C4=CCN(S(C)(=O)=O)CC4)cc23)c1C [D.7.41] | – | < 100 nM |
| C=CC(=O)Nc1cc(-c2ccc(C(N)=O)c3[nH]ccc23)ccc1OCc1ccccc1 [E.1.12] | – | 1000 to 10000 nM |
| Cc1c(NC(=O)c2ccc(C(F)F)cc2)cccc1-c1ccc(C(N)=O)c2[nH]c(C3=CCN(S(C)(=O)=O)CC3)cc12 [A.4.10] | < 100 nM | – |
| Cc1c(-c2ccc(C(N)=O)c3[nH]c(-c4cnn(C)c4)cc23)cccc1-n1cnc2ccccc2c1=O [A.10.1] | < 100 nM | – |
| Cc1c(NC(=O)CF)cccc1-c1ccc(C(N)=O)c2[nH]c(C3=CCN(S(C)(=O)=O)CC3)cc12 [D.7.22] | – | < 100 nM |
| C=CC(=O)N1CC(N(C)c2ccc(C(N)=O)c3[nH]c(C4CCS(=O)(=O)CC4)cc23)C1 [E.9.19] | – | < 100 nM |
| C=CC(=O)Nc1cccc(-c2ccc(C(N)=O)c3[nH]c(-c4ccccc4F)cc23)c1C [A.1.29] | < 100 nM | – |
| Cc1c(NC(=O)/C=C/CN2CCCCC2)cccc1-c1ccc(C(N)=O)c2[nH]ccc12 [J.1.1] | – | 100 to 1000 nM |
| Cc1c(NC(=O)c2nccs2)cccc1-c1ccc(C(N)=O)c2[nH]c(-c3ccccc3CNC(=O)CCN3CCCCC3)cc12 [D.1.5] | 1000 to 10000 nM | – |
| C=CC(=O)Nc1cccc(-c2ccc(C(N)=O)c3[nH]c(-c4cccc(F)c4)cc23)c1C [A.1.26] | < 100 nM | – |
| Cc1noc(C)c1-c1ccc(C(N)=O)c2[nH]c(-c3ccc(F)cc3)cc12 [A.9.3] | 100 to 1000 nM | – |
| C/C(O)=C(/C#N)C(=O)Nc1cccc(-c2ccc(C(N)=O)c3[nH]ccc23)c1 [Example 7, (E)-4-(3-(2-Cyano-3-hydroxybut-2-enamido)phenyl)-1H -indole-7-carboxamide] | 1000 to 10000 nM | – |
| C=CC(=O)Nc1cccc(-c2ccc(C(N)=O)c3[nH]c(-c4ccnn4C)cc23)c1C [A.1.11] | < 100 nM | – |
| C=CC(=O)Nc1cc(-c2ccc(C(N)=O)c3[nH]ccc23)ccc1C#N [E.1.31] | – | < 100 nM |
| Cc1c(NC(=O)CCN2CCCC2)cccc1-c1ccc(C(N)=O)c2[nH]ccc12 [D.8.14] | 1000 to 10000 nM | – |
| C=CC(=O)Nc1cccc(-c2ccc(C(N)=O)c3[nH]c(-c4ccc(C(N)=O)cc4)cc23)c1C [A.1.45] | < 100 nM | – |
| C=CC(=O)N1CCOC[C@H](c2ncc(C(N)=O)c3[nH]ccc23)C1 [E.9.31] | – | 1000 to 10000 nM |
| C=CC(=O)N1CCOC[C@H](c2ccc(C(N)=O)c3[nH]ccc23)C1 [E.9.39] | – | 1000 to 10000 nM |

| SMILES | IC50 [1] | IC50 |
| --- | --- | --- |
| NC(=O)c1ccc(-c2ccccc2NC(=O)Cn2sc3ccccc3c2=O)c2cc[nH]c12 [D.2.1] | 1000 to 10000 nM | – |
| C=CC(=O)Nc1cccc(-c2ccc(C(N)=O)c3[nH]c(-c4ccc(S(C)(=O)=O)cc4)cc23)c1C [A.1.40] | < 100 nM | – |
| CN(C)C(=O)/C=C/C(=O)Nc1cccc(-c2ccc(C(N)=O)c3[nH]ccc23)c1 [D.4.2] | 1000 to 10000 nM | – |
| C#CC(=O)NCc1ccccc1-c1cc2c(-c3cccc(NC(=O)c4nccs4)c3C)ccc(C(N)=O)c2[nH]1 [D.1.11] | 100 to 1000 nM | – |
| CC(=O)NCc1ccccc1-c1cc2c(-c3cccc(NC(=O)c4nccs4)c3C)ccc(C(N)=O)c2[nH]1 [E.4.3] | – | 100 to 1000 nM |
| C=CC(=O)N1CCOC[C@@H](c2ncc(C(N)=O)c3[nH]ccc23)C1 [E.9.30] | – | < 100 nM |
| Cc1c(NC(=O)C2CCCN(C)C2)cccc1-c1ccc(C(N)=O)c2[nH]c(C3=CCN(S(C)(=O)=O)CC3)cc12 (centres unmarked) [D.7.37] | – | 100 to 1000 nM |
| C=CC(=O)Nc1cccc(-c2ccc(C(N)=O)c3[nH]ccc23)c1C#N [E.1.27] | – | 100 to 1000 nM |
| Cc1c(NC(=O)c2nccs2)cccc1-c1ccc(C(N)=O)c2[nH]c(-c3cnn(C)c3)cc12 [A.2.2] | < 100 nM | – |
| Cc1c(NC(=O)C(C)C)cccc1-c1ccc(C(N)=O)c2[nH]c(C3=CCN(S(C)(=O)=O)CC3)cc12 [D.7.40] | – | < 100 nM |
| CCC(=O)N1CC[C@H](c2ccc(C(N)=O)c3[nH]c(C)cc23)C1 [E.10.1] | – | 100 to 1000 nM |
| Cc1c(NC(=O)c2nccs2)cccc1-c1ccc(C(N)=O)c2[nH]c(-c3ccccc3CNC(=O)COc3ccc(F)cc3)cc12 [D.1.7] | 1000 to 10000 nM | – |
| Cc1c(-c2ccc(C(N)=O)c3[nH]c(C4=CCN(C)C4)cc23)cccc1-n1cnc2ccccc2c1=O [H.1, 2-(1-Methyl-2,5-dihydro-1H-pyrrol-3-yl)-4-(2-methyl-3-(4-oxoquinazolin-3(4H)-yl)phenyl)-1H-indole-7-carboxamide] | < 100 nM | – |
| C=CC(=O)N1CCC[C@H](c2ccc(C(N)=O)c3[nH]c(C)cc23)C1 [E.9.8] | – | < 100 nM |
| Cc1c(NC(=O)COc2ccc(F)cc2)cccc1-c1ccc(C(N)=O)c2[nH]c(C3=CCN(S(C)(=O)=O)CC3)cc12 [D.7.11] | – | < 100 nM |
| C=CC(=O)N1CCC[C@@H](c2ccc(C(N)=O)c3[nH]ccc23)C1 [30 (S), (S)-4-(1-acryloylpiperidin-3-yl)-1H-indole-7-carboxamide] | < 100 nM | – |
| CS(=O)(=O)N1CC=C(c2cc3c(N4CCC[C@@H](N5CCn6ccnc6C5=O)C4)ccc(C(N)=O)c3[nH]2)CC1 [O.1.3*] | – | < 100 nM |
| C=CC(=O)N[C@@H]1CCCN(c2ccc(C(N)=O)c3[nH]c(C4=CCN(S(C)(=O)=O)CC4)cc23)C1 [E.1.11*] | – | < 100 nM |
| COCCNC(=O)/C=C\C(=O)Nc1cccc(-c2ccc(C(N)=O)c3[nH]ccc23)c1 [D.9.1] | 100 to 1000 nM | – |
| Cc1ccc2c(c1)C(=O)N(c1cccc(-c3ccc(C(N)=O)c4[nH]c(-c5cccnc5)cc34)c1C)C2 [A.7.5] | < 100 nM | – |
| CS(=O)(=O)N1CC=C(c2cc3c(N4CC[C@@H](O)[C@H](NC(=O)c5nccs5)C4)ccc(C(N)=O)c3[nH]2)CC1 (relative stereo) [O.1, N-(trans-1-(7-carbamoyl-2-(1-(methylsulfonyl)-1,2,3,6-tetrahydropyridin-4-yl)-1H-indol-4-yl)-4-hydroxypiperidin-3-yl)thiazole-2-carboxamide] | < 100 nM | – |
| CC#CC(=O)Nc1c[nH]c2c(C(N)=O)ccc(-c3cccc(NC(=O)c4nccs4)c3C)c12 [D.3.5] | 1000 to 10000 nM | – |
| C=CC(=O)Nc1cccc(-c2ccc(C(N)=O)c3[nH]c(-c4ccc(C(=O)N5CCN(C)CC5)cc4)cc23)c1C [A.1.39] | < 100 nM | – |

| SMILES | IC50 [1] | IC50 |
| --- | --- | --- |
| C=CC(=O)N1CC(N(C)c2ccc(C(N)=O)c3[nH]c(-c4cn(C)nc4C)cc23)C1 [E.9.18] | – | < 100 nM |
| Cc1c(-c2ccc(C(N)=O)c3[nH]c(-c4cncnc4)cc23)cccc1-n1cnc2ccccc2c1=O [A.13.1] | 100 to 1000 nM | – |
| Cc1c(-c2ccc(C(N)=O)c3[nH]c(C4=CCN(S(C)(=O)=O)CC4)cc23)cccc1N(CCO)C(=O)c1ccc(C(F)F)cc1 [A.4.14] | < 100 nM | – |
| CC(=O)N1CC=C(c2cc3c(-c4cccc(NC(=O)c5ccc(C(F)F)cc5)c4C)ccc(C(N)=O)c3[nH]2)CC1 [A.3.7, 2-(1-acetyl-1,2,3,6-tetrahydropyridin-4-yl)-4-(3-(4-(difluoromethyl)benzamido)-2-methylphenyl)-1H-indole-7-carboxamide] | < 100 nM | – |
| C/C=C(/C)C(=O)Nc1cccc(-c2ccc(C(N)=O)c3[nH]c(C4=CCN(S(C)(=O)=O)CC4)cc23)c1C [D.7.1] | – | < 100 nM |
| C=CC(=O)Nc1cccc(-c2ccc(C(N)=O)c3[nH]c(-c4cc(S(=O)(=O)N5CCCC5)ccc4C)cc23)c1C [A.1.28] | 100 to 1000 nM | – |
| Cc1ccc(NC(=O)c2nccs2)cc1-c1ccc(C(N)=O)c2[nH]c(-c3cccnc3)cc12 [A.7.7] | 1000 to 10000 nM | – |
| Cc1c(NC(=O)c2cc3c(s2)CCCC3)cccc1-c1ccc(C(N)=O)c2[nH]c(-c3ccc(F)cc3)cc12 [A.9.7] | 1000 to 10000 nM | – |
| Cc1c(NC(=O)CCN2CCCCC2)cccc1-c1ccc(C(N)=O)c2[nH]c(C3=CCN(S(C)(=O)=O)CC3)cc12 [D.7.3] | – | 100 to 1000 nM |
| C=CC(=O)Nc1cccc(-c2ccc(C(N)=O)c3[nH]c(-c4c(C)n[nH]c4C)cc23)c1C [A.1.3] | 100 to 1000 nM | – |
| Cn1cc(-c2cc3c(N4CCC[C@@H](NC(=O)c5ccc(OC(F)(F)F)cc5)C4)ccc(C(N)=O)c3[nH]2)cn1 [O.1.24*] | – | 100 to 1000 nM |
| C=CC(=O)N1CCC[C@H](c2cnc(C(N)=O)c3sc(-c4cnn(C)c4)nc23)C1 [E.9.36] | – | < 100 nM |
| C=CC(=O)Nc1cccc(-c2ccc(C(N)=O)c3[nH]c(-c4ccc(C(=O)OC)cc4)cc23)c1C [A.1.20] | < 100 nM | – |
| COc1ccc(C(=O)N[C@@H]2CCCN(c3ccc(C(N)=O)c4[nH]ccc34)C2)cc1 [O.1.9*] | – | 1000 to 10000 nM |
| Cc1c(-c2ccc(C(N)=O)c3[nH]c(C4=CCOCC4)cc23)cccc1-n1cnc2ccc(F)cc2c1=O [A.11.2] | < 100 nM | – |
| C=CC(=O)Nc1cccc(-c2ccc(C(N)=O)c3[nH]c(-c4cccnc4OC)cc23)c1C [A.1.18] | < 100 nM | – |
| C=CC(=O)N1CC[C@H](c2ccc(C(N)=O)c3[nH]c(-c4cnn(C)c4)cc23)C1 [E.9.48] | – | < 100 nM |
| Cc1c(NC(=O)c2ccc(C(C)(C)C)cc2)cccc1-c1ccc(C(N)=O)c2[nH]c(-c3cccnc3)cc12 [A.7.1] | < 100 nM | – |
| CS(=O)(=O)N1CC=C(c2cc3c(N4CCC[C@@H](n5ccn6ccnc6c5=O)C4)ccc(C(N)=O)c3[nH]2)CC1 [O.1.4*] | – | < 100 nM |
| NC(=O)c1ccc(-c2cccnc2)c2cc(-c3ccc(F)cc3)[nH]c12 [A.9.2] | < 100 nM | – |
| Cc1c(-c2ccc(C(N)=O)c3[nH]c(C4=CCNC4)cc23)cccc1-n1cnc2ccccc2c1=O [G.1, 2-(2,5-Dihydro-1H-pyrrol-3-yl)-4-(2-methyl-3-(4-oxoquinazolin-3(4H)-yl)phenyl)-1H-indole-7-carboxamide] | < 100 nM | – |
| C=CC(=O)Nc1cccc(-c2ccc(C(N)=O)c3[nH]c(-c4ccc5c(c4)CCO5)cc23)c1C [A.1.21] | < 100 nM | – |
